Source: ChEMBL document CHEMBL2086273, “Significant activity of ecdysteroids on the resistance to doxorubicin in mammalian cancer cells expressing the human ABCB1 transporter” (J Med Chem, 2012)

Key:
Assay type in all cases: cell-based
[1] = biological target: T1, ATP-dependent translocase ABCB1 (Homo sapiens, UniProt P08183); experiment: Inhibition of human ABCB1 expressed in mouse L5178 cells assessed as 75% inhibition of cell proliferation at compound-doxorubicin ratio of 81.5:1 after 48 hrs by MTT assay; conditions: l5178, 48 h
[2] = biological target: T1, ATP-dependent translocase ABCB1; experiment: Inhibition of human ABCB1 expressed in mouse L5178 cells assessed as 95% inhibition of cell proliferation at compound-doxorubicin ratio of 81.5:1 after 48 hrs by MTT assay; conditions: l5178, 48 h
[3] = biological target: T1, ATP-dependent translocase ABCB1; experiment: Inhibition of human ABCB1 expressed in mouse L5178 cells assessed as 50% inhibition of cell proliferation at compound-doxorubicin ratio of 81.5:1 after 48 hrs by MTT assay; conditions: l5178, 48 h
[4] = biological target: T1, ATP-dependent translocase ABCB1; experiment: Inhibition of human ABCB1 pump expressed in mouse L5178 cells assessed as fluorescence activity ratio at 20 uM for 10 mins by flow cytometry relative to control; conditions: l5178, 10 min
[5] = biological target: T1, ATP-dependent translocase ABCB1; experiment: Inhibition of human ABCB1 expressed in mouse L5178 cells assessed as 95% inhibition of cell proliferation at compound-doxorubicin ratio of 20.4:1 after 48 hrs by MTT assay; conditions: l5178, 48 h
[6] = biological target: T1, ATP-dependent translocase ABCB1; experiment: Inhibition of human ABCB1 expressed in mouse L5178 cells assessed as 50% inhibition of cell proliferation at compound-doxorubicin ratio of 20.4:1 after 48 hrs by MTT assay; conditions: l5178, 48 h
[7] = biological target: T1, ATP-dependent translocase ABCB1; experiment: Inhibition of human ABCB1 expressed in mouse L5178 cells assessed as 75% inhibition of cell proliferation at compound-doxorubicin ratio of 20.4:1 after 48 hrs by MTT assay; conditions: l5178, 48 h

T1 sequence (P08183 whole entry): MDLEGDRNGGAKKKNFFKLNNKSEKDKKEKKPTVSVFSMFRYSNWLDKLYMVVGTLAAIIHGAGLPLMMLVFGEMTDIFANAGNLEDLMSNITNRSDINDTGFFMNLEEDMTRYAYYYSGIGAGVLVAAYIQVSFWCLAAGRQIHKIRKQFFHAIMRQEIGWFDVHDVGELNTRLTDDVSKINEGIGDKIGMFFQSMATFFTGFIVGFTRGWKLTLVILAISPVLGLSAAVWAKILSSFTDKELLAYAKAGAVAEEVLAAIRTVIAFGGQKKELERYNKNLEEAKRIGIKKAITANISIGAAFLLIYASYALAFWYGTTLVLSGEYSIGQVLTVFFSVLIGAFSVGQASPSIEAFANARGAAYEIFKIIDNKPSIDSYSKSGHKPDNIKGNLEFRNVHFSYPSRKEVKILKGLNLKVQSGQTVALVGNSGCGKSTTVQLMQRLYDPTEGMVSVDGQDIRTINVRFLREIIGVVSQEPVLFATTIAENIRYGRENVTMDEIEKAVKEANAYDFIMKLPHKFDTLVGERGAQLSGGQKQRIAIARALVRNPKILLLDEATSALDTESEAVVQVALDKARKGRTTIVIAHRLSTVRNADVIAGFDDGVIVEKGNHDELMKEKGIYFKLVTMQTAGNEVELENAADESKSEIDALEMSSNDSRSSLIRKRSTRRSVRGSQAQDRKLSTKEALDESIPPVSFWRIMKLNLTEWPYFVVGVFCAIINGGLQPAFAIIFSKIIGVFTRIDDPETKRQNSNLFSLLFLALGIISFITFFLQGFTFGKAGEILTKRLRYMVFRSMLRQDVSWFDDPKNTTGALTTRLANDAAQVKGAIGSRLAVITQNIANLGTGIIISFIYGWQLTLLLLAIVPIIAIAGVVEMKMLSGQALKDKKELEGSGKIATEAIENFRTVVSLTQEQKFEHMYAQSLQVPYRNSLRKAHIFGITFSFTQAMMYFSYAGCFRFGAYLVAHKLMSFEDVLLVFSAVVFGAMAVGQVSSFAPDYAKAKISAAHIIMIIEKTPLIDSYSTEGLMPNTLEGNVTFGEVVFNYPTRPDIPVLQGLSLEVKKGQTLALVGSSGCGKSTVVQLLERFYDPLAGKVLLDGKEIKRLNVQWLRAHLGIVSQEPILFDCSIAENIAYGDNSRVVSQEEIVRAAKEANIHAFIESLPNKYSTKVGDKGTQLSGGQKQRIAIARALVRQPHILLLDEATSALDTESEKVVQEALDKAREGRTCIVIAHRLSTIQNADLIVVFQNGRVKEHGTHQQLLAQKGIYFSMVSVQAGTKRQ

What does the source list for CC(C)(O)CC[C@H]1OC(C)(C)O[C@]1(C)[C@H]1CC[C@@]2(O)C3=CC(=O)[C@H]4C[C@@H](O)CC[C@]4(C)[C@H]3CC[C@]12C?
fractional inhibitory concentration index (FICI) [1]: 0.69; fractional inhibitory concentration index (FICI) [2]: 0.37; fractional inhibitory concentration index (FICI) [3]: 1.28; Ratio [4]: 8.19

What does the source list for CC(C)(O)CC[C@H]1OC(C)(C)O[C@]1(C)[C@H]1CC[C@@]2(O)C3=CC(=O)[C@@H]4C[C@H]5OC(C)(C)O[C@H]5[C@@H](O)[C@]4(C)[C@H]3CC[C@]12C?
fractional inhibitory concentration index (FICI) [5]: 0.24; Ratio [4]: 2.53; fractional inhibitory concentration index (FICI) [6]: 1.23; fractional inhibitory concentration index (FICI) [7]: 0.49

Which results are given for CCC1=C(C)C(=O)O[C@@H]([C@](C)(O)[C@H]2CC[C@@]3(O)C4=CC(=O)[C@@H]5C[C@@H](O)[C@@H](O)C[C@]5(C)[C@H]4CC(=O)[C@]23C)C1 [AJUGALACTONE]?
fractional inhibitory concentration index (FICI) [1]: 1.96; fractional inhibitory concentration index (FICI) [2]: 2.89; fractional inhibitory concentration index (FICI) [3]: 1.43; Ratio [4]: 0.87

Which results are given for CC(C)(O)CC[C@@H](O)[C@](C)(O)[C@H]1CC[C@@]2(O)C3=CC(=O)[C@H]4C[C@@H](O)[C@@H](O)C[C@]4(C)[C@H]3CC[C@]12C?
fractional inhibitory concentration index (FICI) [1]: 0.57; fractional inhibitory concentration index (FICI) [2]: 0.37; fractional inhibitory concentration index (FICI) [3]: 0.99; Ratio [4]: 0.81

How did the “fractional inhibitory concentration index (FICI)” value [1] turn out when CC(=O)O[C@H]1C[C@]2(C)[C@H]3CC[C@]4(C)[C@@H]([C@@](C)(O)[C@@H](CCC(C)(C)OC(C)=O)OC(C)=O)CC[C@@]4(O)C3=CC(=O)[C@]2(O)C[C@H]1OC(C)=O was run?
Its value is 0.46.

What about the “fractional inhibitory concentration index (FICI)” value [2] of the same compound?
Its value is 0.38.

What about the “fractional inhibitory concentration index (FICI)” value [3] of the same compound?
Its value is 0.65.

And the Ratio [4]?
The Ratio was 1.48.

Which “fractional inhibitory concentration index (FICI)” value [5] does the source give for CC(C)(O)CC[C@@H](O)[C@](C)(O)[C@H]1CC[C@@]2(O)C3=CC(=O)[C@@H]4C[C@@H](O)[C@@H](O)C[C@]4(C)[C@H]3CC[C@]12C [20-HYDROXYECDYSONE] here?
The value was 2.04.

What about the Ratio [4] of the same compound?
Its Ratio is 1.76.

What about the “fractional inhibitory concentration index (FICI)” value [6] of the same compound?
Its value is 2.

And the “fractional inhibitory concentration index (FICI)” value [7]?
The value was 2.02.

With CC(C)CC[C@H]1OC(C)(C)O[C@]1(C)[C@H]1CC[C@@]2(O)C3=CC(=O)[C@@H]4C[C@H]5OC(C)(C)O[C@H]5C[C@]4(C)C3=CC[C@]12C as the compound, how does the “fractional inhibitory concentration index (FICI)” value [5] read?
Its value is 0.1.

What about the Ratio [4] of the same compound?
Its Ratio is 41.15.

What about the “fractional inhibitory concentration index (FICI)” value [6] of the same compound?
The value was 0.19.

What about the “fractional inhibitory concentration index (FICI)” value [7] of the same compound?
Its value is 0.14.

Which “fractional inhibitory concentration index (FICI)” value [1] does the source give for C[C@H]([C@H](O)CCC(C)(C)O)[C@H]1CC[C@@]2(O)C3=CC(=O)[C@@H]4C[C@@H](O)CC[C@]4(C)[C@H]3CC[C@]12C here?
Its value is 1.27.

And the “fractional inhibitory concentration index (FICI)” value [2]?
The value was 0.81.

And the “fractional inhibitory concentration index (FICI)” value [3]?
Its value is 2.05.

What about the Ratio [4] of the same compound?
The Ratio was 0.94.

What does the source list for CC(C)CC[C@@H](O)[C@](C)(O)[C@H]1CC[C@@]2(O)C3=CC(=O)[C@@H]4C[C@@H](O)[C@@H](O)C[C@]4(C)[C@H]3CC[C@]12C [PONASTERONE A]?
fractional inhibitory concentration index (FICI) [1]: 0.78; fractional inhibitory concentration index (FICI) [2]: 0.44; fractional inhibitory concentration index (FICI) [3]: 1.41; Ratio [4]: 1.26

Which results are given for C=C(CCCC(C)(C)O)[C@H]1CC[C@@]2(O)C3=CC(=O)[C@@H]4C[C@@H](O)[C@@H](O)[C@@H](O)[C@]4(C)[C@H]3CC[C@]12C?
fractional inhibitory concentration index (FICI) [5]: 0.95; Ratio [4]: 1.58; fractional inhibitory concentration index (FICI) [6]: 0.79; fractional inhibitory concentration index (FICI) [7]: 0.86

How did the “fractional inhibitory concentration index (FICI)” value [1] turn out when CC(C)(O)CC[C@@H](O)[C@](C)(O)[C@H]1CC[C@@]2(O)C3=CC(=O)[C@@H]4C[C@@H](O)[C@@H](O)[C@@H](O)[C@]4(C)[C@H]3CC[C@]12C [INTEGRISTERONE A] was run?
The value was 1.31.

What about the “fractional inhibitory concentration index (FICI)” value [2] of the same compound?
Its value is 2.42.

And the “fractional inhibitory concentration index (FICI)” value [3]?
The value was 0.8.

What about the Ratio [4] of the same compound?
The Ratio was 0.94.

CC1(C)CC[C@H]([C@](C)(O)[C@H]2CC[C@@]3(O)C4=CC(=O)[C@@H]5C[C@@H](O)[C@@H](O)C[C@]5(C)[C@H]4CC[C@]23C)O1 [SHIDASTERONE] was tested. Which “fractional inhibitory concentration index (FICI)” value [1] did it give?
The value was 0.32.

And the “fractional inhibitory concentration index (FICI)” value [2]?
The value was 0.096.

And the “fractional inhibitory concentration index (FICI)” value [3]?
The value was 1.44.

What about the Ratio [4] of the same compound?
Its Ratio is 0.88.

CC(C)(CC[C@@H](O)[C@](C)(O)[C@H]1CC[C@@]2(O)C3=CC(=O)[C@@H]4C[C@@H](O)CC[C@]4(C)[C@H]3CC[C@]12C)O[C@@H]1O[C@H](CO)[C@@H](O)[C@H](O)[C@H]1O was tested. Which “fractional inhibitory concentration index (FICI)” value [1] did it give?
Its value is 0.72.

What about the “fractional inhibitory concentration index (FICI)” value [2] of the same compound?
The value was 0.51.

And the “fractional inhibitory concentration index (FICI)” value [3]?
Its value is 1.05.

And the Ratio [4]?
Its Ratio is 0.68.

Which “fractional inhibitory concentration index (FICI)” value [1] does the source give for C[C@H]([C@H](O)CCC(C)(C)O)[C@H]1CC[C@@]2(O)C3=CC(=O)[C@@H]4C[C@@H](O)[C@@H](O)C[C@]4(C)[C@H]3CC[C@]12C [ECDYSONE] here?
Its value is 4.89.

What about the “fractional inhibitory concentration index (FICI)” value [2] of the same compound?
The value was 12.16.

And the “fractional inhibitory concentration index (FICI)” value [3]?
The value was 2.31.

What about the Ratio [4] of the same compound?
The Ratio was 1.38.

Which results are given for CC(=O)O[C@H](CCC(C)(C)O)[C@](C)(O)[C@H]1CC[C@@]2(O)C3=CC(=O)[C@@H]4C[C@@H](O)[C@@H](O)C[C@]4(C)[C@H]3CC[C@]12C?
fractional inhibitory concentration index (FICI) [1]: 0.97; fractional inhibitory concentration index (FICI) [2]: 0.64; fractional inhibitory concentration index (FICI) [3]: 1.6; Ratio [4]: 1.54

For CC(C)(O)CC[C@@H](O)[C@](C)(O)[C@H]1CC[C@@]2(O)C3=CC(=O)[C@@H]4C[C@@H](O)[C@@H](O)C[C@]4(C)[C@H]3[C@H](O)C[C@]12C [TURKESTERONE], which “fractional inhibitory concentration index (FICI)” value [1] is on record?
Its value is 4.53.

And the “fractional inhibitory concentration index (FICI)” value [2]?
The value was 4.2.

What about the “fractional inhibitory concentration index (FICI)” value [3] of the same compound?
The value was 5.19.

And the Ratio [4]?
The Ratio was 0.93.

CC(=O)[C@H]1CC[C@@]2(O)C3=CC(=O)[C@@H]4C[C@@H](O)[C@@H](O)C[C@]4(C)C3=CC[C@]12C was tested. Which “fractional inhibitory concentration index (FICI)” value [1] did it give?
Its value is 0.67.

And the “fractional inhibitory concentration index (FICI)” value [2]?
Its value is 0.37.

What about the “fractional inhibitory concentration index (FICI)” value [3] of the same compound?
Its value is 1.21.

What about the Ratio [4] of the same compound?
Its Ratio is 5.4.

With CC[C@H](C[C@H]1OC(C)(C)O[C@]1(C)[C@H]1CC[C@@]2(O)C3=CC(=O)[C@@H]4C[C@@H](O)[C@@H](O)C[C@]4(C)[C@H]3CC[C@]12C)C(C)(C)O as the compound, how does the “fractional inhibitory concentration index (FICI)” value [1] read?
The value was 0.26.

And the “fractional inhibitory concentration index (FICI)” value [2]?
The value was 0.091.

What about the “fractional inhibitory concentration index (FICI)” value [3] of the same compound?
The value was 0.81.

And the Ratio [4]?
Its Ratio is 1.21.

Which results are given for CC(C)(O)CCC[C@](C)(O)[C@H]1CC[C@@]2(O)C3=CC(=O)[C@@H]4C[C@@H](O)[C@@H](O)C[C@]4(C)[C@H]3CC[C@]12C?
fractional inhibitory concentration index (FICI) [1]: 1.75; fractional inhibitory concentration index (FICI) [2]: 1.59; fractional inhibitory concentration index (FICI) [3]: 2.04; Ratio [4]: 0.67

For CC(C)CC[C@@H](O)[C@](C)(O)[C@H]1CC[C@@]2(O)C3=CC(=O)[C@]4(O)C[C@@H](O)[C@@H](O)C[C@]4(C)[C@H]3[C@H](O)C[C@]12C [MURISTERONE A], which Ratio [4] is on record?
Its Ratio is 0.74.

For CC(C)(O)CC[C@@H](O)[C@](C)(O)[C@H]1CC[C@@]2(O)C3=CC(=O)[C@@]4(O)C[C@@H](O)CC[C@]4(C)[C@H]3CC[C@]12C, which “fractional inhibitory concentration index (FICI)” value [1] is on record?
The value was 0.45.

And the “fractional inhibitory concentration index (FICI)” value [2]?
Its value is 0.27.

What about the “fractional inhibitory concentration index (FICI)” value [3] of the same compound?
The value was 0.78.

And the Ratio [4]?
The Ratio was 1.21.

CC(C)(O)CC[C@@H](O)[C@](C)(O)[C@H]1CC[C@@]2(O)C3=CC(=O)[C@@H]4C[C@@H](O)[C@@H](O)C[C@]4(C)C3=CC[C@]12C was tested. Which “fractional inhibitory concentration index (FICI)” value [1] did it give?
Its value is 3.35.

What about the “fractional inhibitory concentration index (FICI)” value [2] of the same compound?
Its value is 4.61.

And the “fractional inhibitory concentration index (FICI)” value [3]?
The value was 2.66.

What about the Ratio [4] of the same compound?
Its Ratio is 1.24.

How did the “fractional inhibitory concentration index (FICI)” value [1] turn out when CC(C)(O)CC[C@H]1OC(C)(C)O[C@]1(C)[C@H]1CC[C@@]2(O)C3=CC(=O)[C@]4(O)C[C@@H](O)[C@@H](O)C[C@]4(C)[C@H]3CC[C@]12C was run?
The value was 0.21.

What about the “fractional inhibitory concentration index (FICI)” value [2] of the same compound?
The value was 0.11.

What about the “fractional inhibitory concentration index (FICI)” value [3] of the same compound?
Its value is 0.63.

And the Ratio [4]?
Its Ratio is 1.8.

Which “fractional inhibitory concentration index (FICI)” value [1] does the source give for CC(=O)O[C@H](CCC(C)(C)O)[C@](C)(O)[C@H]1CC[C@@]2(O)C3=CC(=O)[C@@H]4C[C@@H](O)CC[C@]4(C)[C@H]3CC[C@]12C here?
Its value is 0.66.

What about the “fractional inhibitory concentration index (FICI)” value [2] of the same compound?
Its value is 0.44.

What about the “fractional inhibitory concentration index (FICI)” value [3] of the same compound?
Its value is 1.03.

And the Ratio [4]?
The Ratio was 1.21.
